Biological target: CDK4 (Homo sapiens, UniProt P11802+Q16531)
Test: CDK4 percentage degradation in Calu-1 cells (Table 6)
Format: cell-based
Set-up: Cells that express cyclin D1-3 and CDK4/6 proteins were treated with heterobifunctional compounds; endogenous in cells; host or cells: Calu-1
Settings: 16 hours; for inhibition at 0.04 µM: 40 nM; for inhibition at 0.2 µM: 200 nM
Experimental: Calu-(cells were treated with heterobifunctional compounds at 40 nM or 200 nM for 16 hours A: protein percentage degradation […]; B: protein percentage degradation <80%, and ≥50%; C: protein percentage degradation <50%, and ≥30%; D; protein percentage degradation […]; -, data not available.
Calu-1, T47D, MCF7, HCC1428 and other cells were cultured at 37° C. with 5% CO2 in RPMI 1640 or DMEM medium supplemented with 10% fetal bovine serum. Cells were authenticated using the short tandem repeat (STR) assays. Mycoplasma test results were negative. For palbo-resistant cell model, T47D cells were cultured long-term to resistance in the presence of 1 μM Palbociclib. Cells were deemed resistant when growing in the presence of Palbo at the same rate as parental cells.
Cultured cells were washed with cold PBS once and lysed in cold RIPA buffer supplemented with protease inhibitors and phosphatase inhibitors (Beyotime Biotechnology). The solutions were then incubated at 4 ? for 30 min with gentle agitation to fully lysed cells. Cell lysates were centrifuged at 13,000 rpm for 10 min at 4 ? and pellets were discarded. Total protein concentrations in the lysates were determined following BCA assays (Beyotime Biotechnology). Cell lysates were mixed with Laemmli loading buffer and heated at 99° C. for 5 min. Proteins were resolved on SDS-PAGE and visualized using Western ECL Substrate kits on a ChemiDoc MP Imaging system (Bio-Rad). Protein bands were quantitated using the Image Lab software provided by Bio-Rad.

Chain of CDK4 (P11802 2-303 limits assumed): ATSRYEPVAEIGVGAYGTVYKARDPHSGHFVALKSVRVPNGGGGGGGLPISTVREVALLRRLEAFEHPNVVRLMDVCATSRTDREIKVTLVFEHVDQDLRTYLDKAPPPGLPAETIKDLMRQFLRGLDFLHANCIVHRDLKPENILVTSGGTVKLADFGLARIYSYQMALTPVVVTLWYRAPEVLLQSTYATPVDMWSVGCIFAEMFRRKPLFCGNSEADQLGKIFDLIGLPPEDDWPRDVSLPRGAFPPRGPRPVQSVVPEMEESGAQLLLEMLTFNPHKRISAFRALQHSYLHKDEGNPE
Chain of CDK4 (P24385 whole entry partner): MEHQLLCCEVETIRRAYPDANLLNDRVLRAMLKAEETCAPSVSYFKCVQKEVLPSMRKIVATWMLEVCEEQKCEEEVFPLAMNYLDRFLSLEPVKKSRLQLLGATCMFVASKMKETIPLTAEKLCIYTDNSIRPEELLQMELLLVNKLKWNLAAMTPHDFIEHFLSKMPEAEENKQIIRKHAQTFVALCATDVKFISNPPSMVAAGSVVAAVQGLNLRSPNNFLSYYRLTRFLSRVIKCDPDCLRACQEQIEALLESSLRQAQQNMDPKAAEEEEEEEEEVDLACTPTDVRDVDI
Chain of CDK4 (Q16531 2-1140 limits assumed): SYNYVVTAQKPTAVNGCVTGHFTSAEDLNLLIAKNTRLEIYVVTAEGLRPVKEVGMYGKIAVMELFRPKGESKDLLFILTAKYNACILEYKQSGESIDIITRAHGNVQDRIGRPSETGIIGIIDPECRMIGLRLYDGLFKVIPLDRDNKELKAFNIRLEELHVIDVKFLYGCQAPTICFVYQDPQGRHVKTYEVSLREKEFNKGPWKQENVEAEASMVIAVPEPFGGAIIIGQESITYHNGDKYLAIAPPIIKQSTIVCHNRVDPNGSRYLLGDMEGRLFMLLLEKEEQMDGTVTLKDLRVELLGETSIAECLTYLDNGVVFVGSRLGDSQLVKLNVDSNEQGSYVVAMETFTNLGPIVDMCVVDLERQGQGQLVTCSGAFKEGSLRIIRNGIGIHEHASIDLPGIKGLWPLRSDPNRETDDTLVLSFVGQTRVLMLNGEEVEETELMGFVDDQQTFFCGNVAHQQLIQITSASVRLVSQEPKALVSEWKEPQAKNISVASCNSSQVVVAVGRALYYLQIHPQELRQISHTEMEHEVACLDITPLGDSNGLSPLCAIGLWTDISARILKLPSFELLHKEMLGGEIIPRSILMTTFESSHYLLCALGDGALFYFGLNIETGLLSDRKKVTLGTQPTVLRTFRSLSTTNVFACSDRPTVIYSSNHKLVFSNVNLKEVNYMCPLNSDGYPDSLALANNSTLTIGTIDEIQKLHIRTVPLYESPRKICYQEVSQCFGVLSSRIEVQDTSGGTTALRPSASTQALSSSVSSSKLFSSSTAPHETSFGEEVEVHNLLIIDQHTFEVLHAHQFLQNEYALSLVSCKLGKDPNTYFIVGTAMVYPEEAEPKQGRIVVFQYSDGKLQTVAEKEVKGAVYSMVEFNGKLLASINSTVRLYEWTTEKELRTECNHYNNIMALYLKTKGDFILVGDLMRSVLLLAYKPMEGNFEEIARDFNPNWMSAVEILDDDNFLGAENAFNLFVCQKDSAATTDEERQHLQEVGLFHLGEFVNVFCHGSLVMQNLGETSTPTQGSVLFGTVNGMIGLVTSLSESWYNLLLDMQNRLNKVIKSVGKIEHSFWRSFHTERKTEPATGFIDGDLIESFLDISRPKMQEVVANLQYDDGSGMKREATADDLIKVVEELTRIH

inhibition at 0.04 µM [%] | inhibition at 0.2 µM [%] | Compound
< 30 | < 30 | CNc1ccc(C(=O)Nc2ccnn2C)c(NC2CC3(CC(NC(=O)CN4CCN(c5ccc(Nc6ncc7c(C)c(C(C)=O)c(=O)n(C8CCCC8)c7n6)nc5)CC4)C3)C2)n1 (centres unmarked) [CPD-153, 2-((6-(2-(4-(6-((6-acetyl-8-cyclopentyl-5-methyl-7-oxo-7,8-dihydropyrido[2,3-d]pyrimidin-2-yl)amino)pyridin-3-yl)piperazin-1-yl)acetamido)spiro[3.3]heptan-2-yl)amino)-N-(1-methyl-1H-pyrazol-5-yl)-6-(methylamino)nicotinamide]
50 to 80 | 50 to 80 | CNc1ccc(C(=O)Nc2ccc(N(C)C)nn2)c(NC2CCC(NC(=O)CN3CCN(c4ccc(Nc5ncc6c(C)c(C(C)=O)c(=O)n(C7CCCC7)c6n5)nc4)CC3)CC2)n1 (centres unmarked) [CPD-130, 2-((4-(2-(4-(6-((6-Acetyl-8-cyclopentyl-5-methyl-7-oxo-7,8-dihydropyrido[2,3-d]pyrimidin-2-yl)amino)pyridin-3-yl)piperazin-1-yl)acetamido)cyclohexyl)amino)-N-(6-(dimethylamino)pyridazin-3-yl)-6-(methylamino)nicotinamide]
50 to 80 | – | CNc1ccc(C(=O)Nc2ccc(C)c(C3CC3)n2)c(NCCCCCCCNC(=O)CN2CCN(c3ccc(Nc4ncc5c(C)c(C(C)=O)c(=O)n(C6CCCC6)c5n4)nc3)CC2)n1 [CPD-6, 2-((7-(2-(4-(6-((6-acetyl-8-cyclopentyl-5-methyl-7-oxo-7,8-dihydropyrido[2,3-d]pyrimidin-2-yl)amino)pyridin-3-yl)piperazin-1-yl)acetamido)heptyl)amino)-N-(6-cyclopropyl-5-methylpyridin-2-yl)-6-(methylamino)nicotinamide]
< 30 | < 30 | CNc1ccc(C(=O)NC2CC(N(C)C)C2)c(NCCCCCNC(=O)CN2CCN(c3ccc(Nc4ncc5c(C)c(C(C)=O)c(=O)n(C6CCCC6)c5n4)nc3)CC2)n1 (centres unmarked) [CPD-64, 2-((5-(2-(4-(6-((6-Acetyl-8-cyclopentyl-5-methyl-7-oxo-7,8-dihydropyrido[2,3-d]pyrimidin-2-yl)amino)pyridin-3-yl)piperazin-1-yl)acetamido)pentyl)amino)-N-(3-(dimethylamino)cyclobutyl)-6-(methylamino)nicotinamide]
< 30 | 50 to 80 | CNc1ccc(C(=O)Nc2ccc(N(C)C)nn2)c(NC[C@H]2CC[C@H](CCC(=O)N3CCN(c4ccc(Nc5ncc6c(C)c(C(C)=O)c(=O)n(C7CCCC7)c6n5)nc4)CC3)CC2)n1 [CPD-204, 2-(((trans-4-(3-(4-(6-((6-acetyl-8-cyclopentyl-S-methyl-7-oxo-7,8-dihydropyrido[2,3-d]pyrimidin-2-yl)amino)pyridin-3-yl)piperazin-1-yl)-3-oxopropyl)cyclohexyl)methyl)amino)-N-(6-(dimethylamino)pyridazin-3-yl)-6-(methylamino)nicotinamide]
30 to 50 | 50 to 80 | [2H]C([2H])([2H])Nc1ccc(C(=O)Nc2ccc(N(C)C)nn2)c(NC2CC(NC(=O)CN3CCN(c4ccc(Nc5ncc6c(C)c(C(C)=O)c(=O)n(C7CCCC7)c6n5)nc4)CC3)C2)n1 (centres unmarked) [CPD-245, 2-((3-(2-(4-(6-((6-acetyl-8-cyclopentyl-5-methyl-7-oxo-7,8-dihydropyrido[2,3-d]pyrimidin-2-yl)amino)pyridin-3-yl)piperazin-1-yl)acetamido)cyclobutyl)amino)-N-(6-(dimethylamino)pyridazin-3-yl)-6-((methyl-d3)amino)nicotinamide]
30 to 50 | 50 to 80 | CNc1ccc(C(=O)Nc2ccc(N(C)C)nn2)c(NC2CCN(C(=O)CN3CCN(c4ccc(Nc5ncc6c(C)c(C(C)=O)c(=O)n(C7CCCC7)c6n5)nc4)CC3)C2)n1 (centres unmarked) [CPD-201, 2-((1-(2-(4-(6-((6-acetyl-8-cyclopentyl-5-methyl-7-oxo-7,8-dihydropyrido[2,3-d]pyrimidin-2-yl)amino)pyridin-3-yl)piperazin-1-yl)acetyl)pyrrolidin-3-yl)amino)-N-(6-(dimethylamino)pyridazin-3-yl)-6-(methylamino)nicotinamide]
30 to 50 | 50 to 80 | CNc1ccc(C(=O)Nc2cccc(N(C)C)n2)c(NC2CC3(CC(NC(=O)CN4CCN(c5ccc(Nc6ncc7c(C)c(C(C)=O)c(=O)n(C8CCCC8)c7n6)nc5)CC4)C3)C2)n1 (centres unmarked) [CPD-88, 2-((6-(2-(4-(6-((6-Acetyl-8-cyclopentyl-5-methyl-7-oxo-7,8-dihydropyrido[2,3-d]pyrimidin-2-yl)amino)pyridin-3-yl)piperazin-1-yl)acetamido)spiro[3.3]heptan-2-yl)amino)-N-(6-(dimethylamino)pyridin-2-yl)-6-(methylamino)nicotinamide]

The remaining lines, values behind:

Compound | inhibition at 0.04 µM [%] | inhibition at 0.2 µM [%]
CNc1ccc(C(=O)Nc2ccc(N(C)C)nn2)c(NC2CC(CNC(=O)N3CCN(c4ccc(Nc5ncc6c(C)c(C(C)=O)c(=O)n(C7CCCC7)c6n5)nc4)CC3)C2)n1 (centres unmarked) [CPD-166, 4-(6-((6-acetyl-8-cyclopentyl-5-methyl-7-oxo-7,8-dihydropyrido[2,3-d]pyrimidin-2-yl)amino)pyridin-3-yl)-N-((3-((3-((6-(dimethylamino)pyridazin-3-yl)carbamoyl)-6-(methylamino)pyridin-2-yl)amino)cyclobutyl)methyl)piperazine-1-carboxamide] | 50 to 80 | 50 to 80
CNc1ccc(C(=O)Nc2cccc(OC)n2)c(NC2CC3(CC(NC(=O)CN4CCN(c5ccc(Nc6ncc7c(C)c(C(C)=O)c(=O)n(C8CCCC8)c7n6)nc5)CC4)C3)C2)n1 (centres unmarked) [CPD-161, 2-((6-(2-(4-(6-((6-acetyl-8-cyclopentyl-5-methyl-7-oxo-7,8-dihydropyrido[2,3-d]pyrimidin-2-yl)amino)pyridin-3-yl)piperazin-1-yl)acetamido)spiro[3.3]heptan-2-yl)amino)-N-(6-methoxypyridin-2-yl)-6-(methylamino)nicotinamide] | 50 to 80 | > 80
CNc1ccc(C(=O)Nc2ccc(N(C)C)nn2)c(NC2CC(NC(=O)CN3CCN(c4ccc(Nc5ncc6c(C)c(C(C)=O)c(=O)n(C7CCCC7)c6n5)nc4)CC3)C2)n1 (centres unmarked) [CPD-149, 2-((3-(2-(4-(6-((6-acetyl-8-cyclopentyl-5-methyl-7-oxo-7,8-dihydropyrido[2,3-d]pyrimidin-2-yl)amino)pyridin-3-yl)piperazin-1-yl)acetamido)cyclobutyl)amino)-N-(6-(dimethylamino)pyridazin-3-yl)-6-(methylamino)nicotinamide] | 30 to 50 | 50 to 80
CNc1ccc(C(=O)Nc2ccc(N(C)C)nn2)c(NC2CN(CCNC(=O)CN3CCN(c4ccc(Nc5ncc6c(C)c(C(C)=O)c(=O)n(C7CCCC7)c6n5)nc4)CC3)C2)n1 [CPD-107, 2-((1-(2-(2-(4-(6-((6-Acetyl-8-cyclopentyl-5-methyl-7-oxo-7,8-dihydropyrido[2,3-d]pyrimidin-2-yl)amino)pyridin-3-yl)piperazin-1-yl)acetamido)ethyl)azetidin-3-yl)amino)-N-(6-(dimethylamino)pyridazin-3-yl)-6-(methylamino)nicotinamide] | < 30 | < 30
CNc1ccc(C(=O)Nc2cccc(=O)[nH]2)c(NC2CC3(CC(NC(=O)CN4CCN(c5ccc(Nc6ncc7c(C)c(C(C)=O)c(=O)n(C8CCCC8)c7n6)nc5)CC4)C3)C2)n1 (centres unmarked) [CPD-122, 2-((6-(2-(4-(6-((6-Acetyl-8-cyclopentyl-5-methyl-7-oxo-7,8-dihydropyrido[2,3-d]pyrimidin-2-yl)amino)pyridin-3-yl)piperazin-1-yl)acetamido)spiro[3.3]heptan-2-yl)amino)-6-(methylamino)-N-(6-oxo-1,6-dihydropyridin-2-yl)nicotinamide] | 30 to 50 | 50 to 80
[2H]C([2H])([2H])Nc1ccc(C(=O)Nc2cc(C)n(C)n2)c(NC2CCN(C(=O)CN3CCN(c4ccc(Nc5ncc6c(C)c(C(C)=O)c(=O)n(C7CCCC7)c6n5)nc4)CC3)CC2)n1 [CPD-230, 2-((1-(2-(4-(6-((6-acetyl-8-cyclopentyl-5-methyl-7-oxo-7,8-dihydropyrido[2,3-d]pyrimidin-2-yl)amino)pyridin-3-yl)piperazin-1-yl)acetyl)piperidin-4-yl)amino)-N-(1,5-dimethyl-1H-pyrazol-3-yl)-6-((methyl-d3)amino)nicotinamide] | < 30 | 30 to 50
CC(=O)c1c(C)c2cnc(Nc3ccc(N4CCN(CC(=O)NCCCCCNc5nc(NC6CCC6)ccc5C(=O)Nc5ccc(N(C)C)nn5)CC4)cn3)nc2n(C2CCCC2)c1=O [CPD-59, 2-((5-(2-(4-(6-((6-Acetyl-8-cyclopentyl-5-methyl-7-oxo-7,8-dihydropyrido[2,3-d]pyrimidin-2-yl)amino)pyridin-3-yl)piperazin-1-yl)acetamido)pentyl)amino)-6-(cyclobutylamino)-N-(6-(dimethylamino)pyridazin-3-yl)nicotinamide] | 50 to 80 | 50 to 80
